Measured values reported in the NIST ThermoML archive (doi:10.1016/j.tca.2005.11.021).

Test: molar heat capacity at constant pressure
Details: 101.33 kPa, Crystal, Small (less than 1 g) adiabatic calorimetry

N[C@@H](CCC(=O)[O-])C(=O)[O-].N[C@@H](CCC(=O)[O-])C(=O)[O-].O.O.O.O.O.O.O.O.O.[Ho+3].[Ho+3].[O-][Cl+3]([O-])([O-])O.[O-][Cl+3]([O-])([O-])O.[O-][Cl+3]([O-])([O-])[O-].[O-][Cl+3]([O-])([O-])[O-] [diholmium tetraperchlorate bis-l-glutamate nonahydrate]
Details | molar heat capacity at constant pressure [J/K/mol]
78.47 K | 416.36
79.95 K | 427.06
81.58 K | 448.95
83.14 K | 457.5
84.69 K | 466.74
86.44 K | 480.65
88.37 K | 490.26
90.58 K | 502.33
93.05 K | 521.47
95.51 K | 537.31
97.87 K | 558.72
100.23 K | 562.37
102.52 K | 570.54
104.79 K | 579.03
107.01 K | 584.28
109.19 K | 599.35
111.54 K | 612.05
114.01 K | 619.47
116.69 K | 633.45
119.55 K | 640.47
122.36 K | 656.69
125.12 K | 670.24
127.84 K | 678.7
130.52 K | 691.49
133.16 K | 703.15
136.41 K | 717.73
140.25 K | 728.41
144.03 K | 745.38
147.75 K | 759.44
151.88 K | 781.07
156.39 K | 802.41
160.82 K | 822.03
165.17 K | 841.38
169.46 K | 860.32
173.69 K | 880.13
177.85 K | 903.04
181.91 K | 962.58
185.82 K | 1035.9
189.62 K | 1053.8
193.38 K | 1068
197.09 K | 1084.5
200.76 K | 1104.7
204.4 K | 1116.6
208 K | 1131.5
211.57 K | 1149.2
215.09 K | 1170.1
218.58 K | 1180.3
222.04 K | 1198
225.47 K | 1211.6
228.86 K | 1235.1
232.19 K | 1241.6
235.57 K | 1256.3
239.35 K | 1265.1
243.62 K | 1286.5
247.83 K | 1297.2
252.02 K | 1318.1
256.17 K | 1324
260.28 K | 1339.5
264.35 K | 1355.8
268.38 K | 1368.2
272.36 K | 1390.1
276.3 K | 1406.8
280.21 K | 1418.2
284.86 K | 1435.3
290.1 K | 1457.8
295.36 K | 1477.1
300.5 K | 1499
305.57 K | 1521.1
310.61 K | 1529.2
315.6 K | 1558.3
320.54 K | 1577.6
325.43 K | 1599.1
330.3 K | 1607
335.02 K | 1641.9
339.66 K | 1649.4
344.14 K | 1668.3
